According to ChEMBL document CHEMBL4627246, “Pyroglutamide-Based P2X7 Receptor Antagonists Targeting Inflammatory Bowel Disease” (J Med Chem, 2020):

How the values were obtained:
Assay type in all cases: cell-based
HCC 2998 = test: Cytotoxicity against human HCC2998 cells assessed as effect on cell growth at 10 uM incubated for 48 hrs by sulforhodamine B assay; conditions: hcc 2998, 48 h
UO-31 = test: Cytotoxicity against human UO31 cells assessed as effect on cell growth at 10 uM incubated for 48 hrs by sulforhodamine B assay; conditions: uo-31, 48 h
RXF 393 = test: Cytotoxicity against human RXF393 cells assessed as effect on cell growth at 10 uM incubated for 48 hrs by sulforhodamine B assay; conditions: rxf 393, 48 h
SF-539 = test: Cytotoxicity against human SF539 cells assessed as effect on cell growth at 10 uM incubated for 48 hrs by sulforhodamine B assay; conditions: sf-539, 48 h
MDA-MB-435 = test: Cytotoxicity against human MDA-MB-435 cells assessed as effect on cell growth at 10 uM incubated for 48 hrs by sulforhodamine B assay; conditions: mda-mb-435, 48 h
OVCAR-8 = test: Cytotoxicity against human OVCAR8 cells assessed as effect on cell growth at 10 uM incubated for 48 hrs by sulforhodamine B assay; conditions: ovcar-8, 48 h
SNB-19 = test: Cytotoxicity against human SNB19 cells assessed as effect on cell growth at 10 uM incubated for 48 hrs by sulforhodamine B assay; conditions: snb-19, 48 h
HT-29 = test: Cytotoxicity against human HT-29 cells assessed as effect on cell growth at 10 uM incubated for 48 hrs by sulforhodamine B assay; conditions: ht-29, 48 h
MCF7 = test: Cytotoxicity against human MCF7 cells assessed as effect on cell growth at 10 uM incubated for 48 hrs by sulforhodamine B assay; conditions: mcf7, 48 h
OVCAR-3 = test: Cytotoxicity against human OVCAR3 cells assessed as effect on cell growth at 10 uM incubated for 48 hrs by sulforhodamine B assay; conditions: ovcar-3, 48 h
TK-10 = test: Cytotoxicity against human TK10 cells assessed as effect on cell growth at 10 uM incubated for 48 hrs by sulforhodamine B assay; conditions: tk-10, 48 h
A498 = test: Cytotoxicity against human A498 cells assessed as effect on cell growth at 10 uM incubated for 48 hrs by sulforhodamine B assay; conditions: a498, 48 h
UACC-62 = test: Cytotoxicity against human UACC62 cells assessed as effect on cell growth at 10 uM incubated for 48 hrs by sulforhodamine B assay; conditions: uacc-62, 48 h
786-0 = test: Cytotoxicity against human 786-0 cells assessed as effect on cell growth at 10 uM incubated for 48 hrs by sulforhodamine B assay; conditions: 786-0, 48 h
T47D = test: Cytotoxicity against human T47D cells assessed as effect on cell growth at 10 uM incubated for 48 hrs by sulforhodamine B assay
DU-145 = test: Cytotoxicity against human DU145 cells assessed as effect on cell growth at 10 uM incubated for 48 hrs by sulforhodamine B assay; conditions: du-145, 48 h
MDA-MB-468 = test: Cytotoxicity against human MDA-MB-468 cells assessed as effect on cell growth at 10 uM incubated for 48 hrs by sulforhodamine B assay; conditions: mda-mb-468, 48 h
SK-MEL-2 = test: Cytotoxicity against human SK-MEL-2 cells assessed as effect on cell growth at 10 uM incubated for 48 hrs by sulforhodamine B assay; conditions: sk-mel-2, 48 h
HCT-116 = test: Cytotoxicity against human HCT116 cells assessed as effect on cell growth at 10 uM incubated for 48 hrs by sulforhodamine B assay; conditions: hct-116, 48 h
OVCAR-5 = test: Cytotoxicity against human OVCAR5 cells assessed as effect on cell growth at 10 uM incubated for 48 hrs by sulforhodamine B assay; conditions: ovcar-5, 48 h

Measured: Activity

O=C(NCCc1ccc(Cl)cc1Cl)[C@@H]1CCC(=O)N1c1ccccc1
Non-Toxic: all assays above

O=C(NCc1ccccc1Cl)[C@@H]1CCC(=O)N1Cc1ccccc1Cl
Non-Toxic: all assays above

CN1C(=O)CC[C@H]1C(=O)NCc1cccc(C(F)(F)F)c1Cl [GSK1482160]
Non-Toxic: all assays above

O=C(NCc1ccccc1Cl)[C@@H]1CCC(=O)N1Cc1ccc(Cl)cc1
Non-Toxic: all assays above

O=C(NCc1ccc(Cl)cc1Cl)[C@@H]1CCC(=O)N1Cc1ccc(Cl)cc1
Non-Toxic: all assays above

CCCCCCN1C(=O)[C@@H]2CCC(=O)N2C1N(C)C (stereo not given in full)
Non-Toxic: all assays above

CN(C)/C=C1\C[C@H]2C(=O)N(Cc3ccc(Cl)cc3Cl)C(N(C)C)N2C1=O (stereo not given in full)
Non-Toxic: all assays above

CN(C)/C=C1\C[C@H]2C(=O)N(/C(=C/N(C)C)c3ccncc3)C(N(C)C)N2C1=O (stereo not given in full)
Non-Toxic: all assays above

O=C(NCc1ccc(Cl)cc1Cl)[C@@H]1CCC(=O)N1c1cccs1
Non-Toxic: all assays above
